Experimental data as given in ChEMBL document CHEMBL3621161, “Conformationally restrained carbamoylcholine homologues. Synthesis, pharmacology at neuronal nicotinic acetylcholine receptors and biostructural considerations” (Eur J Med Chem, 2015).
Active and inactive are the calls of the source. The rule behind the calls is not given here.

Legend:
[1] = molecular target: Neuronal acetylcholine receptor; alpha4/beta2 (Rattus norvegicus, UniProt P09483+P12390); test: Displacement of [3H]epibatidine from rat neuronal acetylcholine receptor subunit alpha4beta2 expressed in HEK293 cell membranes incubated for 4 hrs by scintillation counting method
[2] = molecular target: Neuronal acetylcholine receptor; alpha4/beta4 (Rattus norvegicus, UniProt P09483+P12392); test: Displacement of [3H]epibatidine from rat neuronal acetylcholine receptor subunit alpha4beta4 expressed in HEK293 cell membranes incubated for 4 hrs by scintillation counting method
[3] = molecular target: T1, Neuronal acetylcholine receptor; alpha3/beta4 (Rattus norvegicus, UniProt P04757+P12392); test: Displacement of [3H]epibatidine from rat neuronal acetylcholine receptor subunit alpha3beta4 expressed in HEK293 cell membranes incubated for 4 hrs by scintillation counting method; conditions: for pKi: hek293
[4] = molecular target: Neuronal acetylcholine receptor subunit alpha-4/beta-2 (Mus musculus) (UniProt Q9ERK7+O70174); test: Agonist activity at mouse neuronal acetylcholine receptor subunit alpha4beta2 expressed in HEK293T cells at 300 uM by FMP assay; type: cell-based; conditions: HEK-293T
[5] = molecular target: T1, Neuronal acetylcholine receptor; alpha3/beta4; test: Agonist activity at rat neuronal acetylcholine receptor subunit alpha3beta4 expressed in HEK293 cells at 1 mM by FMP assay; type: cell-based; conditions: for pEC50: hek293
[6] = molecular target: T1, Neuronal acetylcholine receptor; alpha3/beta4; test: Agonist activity at rat neuronal acetylcholine receptor subunit alpha3beta4 expressed in HEK293 cells by FMP assay; type: cell-based
[7] = molecular target: Neuronal acetylcholine receptor subunit alpha-4/beta-2 (Mus musculus, UniProt O70174+Q9ERK7); test: Agonist activity at mouse neuronal acetylcholine receptor subunit alpha4beta2 expressed in HEK293T cells by FMP assay; type: cell-based, HEK-293T
[8] = molecular target: Neuronal acetylcholine receptor; alpha3/beta4 (Rattus norvegicus) (UniProt P04757+P12392); test: Agonist activity at rat neuronal acetylcholine receptor subunit alpha3beta4 expressed in HEK293 cells at 300 uM by FMP assay; type: cell-based

Neuronal acetylcholine receptor subunit alpha-4/beta-2 (Mus musculus), sequence (O70174 31-629 partner limits assumed): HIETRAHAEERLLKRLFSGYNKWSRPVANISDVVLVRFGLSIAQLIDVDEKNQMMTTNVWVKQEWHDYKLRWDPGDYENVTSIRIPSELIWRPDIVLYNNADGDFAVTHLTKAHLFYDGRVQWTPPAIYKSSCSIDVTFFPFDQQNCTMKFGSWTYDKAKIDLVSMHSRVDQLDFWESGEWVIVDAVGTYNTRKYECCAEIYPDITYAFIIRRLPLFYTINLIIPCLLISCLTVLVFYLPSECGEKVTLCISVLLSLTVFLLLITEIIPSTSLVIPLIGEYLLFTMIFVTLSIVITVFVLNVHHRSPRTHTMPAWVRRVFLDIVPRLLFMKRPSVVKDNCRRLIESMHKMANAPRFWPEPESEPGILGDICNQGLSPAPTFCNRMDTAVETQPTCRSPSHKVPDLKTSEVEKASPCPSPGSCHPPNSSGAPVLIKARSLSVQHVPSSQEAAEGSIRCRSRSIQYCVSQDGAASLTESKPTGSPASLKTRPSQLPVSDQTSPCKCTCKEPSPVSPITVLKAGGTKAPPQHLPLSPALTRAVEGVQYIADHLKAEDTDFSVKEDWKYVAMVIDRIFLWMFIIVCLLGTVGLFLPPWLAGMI
Neuronal acetylcholine receptor subunit alpha-4/beta-2 (Mus musculus), sequence (Q9ERK7 26-501 limits assumed): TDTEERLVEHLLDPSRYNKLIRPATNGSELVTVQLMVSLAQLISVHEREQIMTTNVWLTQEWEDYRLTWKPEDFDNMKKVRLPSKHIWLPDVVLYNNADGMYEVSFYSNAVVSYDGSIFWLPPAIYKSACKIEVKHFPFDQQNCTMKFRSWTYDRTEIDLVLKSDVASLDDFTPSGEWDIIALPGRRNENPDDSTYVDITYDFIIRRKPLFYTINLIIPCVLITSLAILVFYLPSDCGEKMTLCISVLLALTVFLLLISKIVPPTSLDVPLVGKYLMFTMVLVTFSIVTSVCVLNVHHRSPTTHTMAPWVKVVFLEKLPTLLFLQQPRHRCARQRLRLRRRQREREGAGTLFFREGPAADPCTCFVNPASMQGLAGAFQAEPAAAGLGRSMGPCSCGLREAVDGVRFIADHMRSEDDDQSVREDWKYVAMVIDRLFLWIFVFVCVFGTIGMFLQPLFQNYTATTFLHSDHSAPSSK
T1 sequence (P04757 whole entry): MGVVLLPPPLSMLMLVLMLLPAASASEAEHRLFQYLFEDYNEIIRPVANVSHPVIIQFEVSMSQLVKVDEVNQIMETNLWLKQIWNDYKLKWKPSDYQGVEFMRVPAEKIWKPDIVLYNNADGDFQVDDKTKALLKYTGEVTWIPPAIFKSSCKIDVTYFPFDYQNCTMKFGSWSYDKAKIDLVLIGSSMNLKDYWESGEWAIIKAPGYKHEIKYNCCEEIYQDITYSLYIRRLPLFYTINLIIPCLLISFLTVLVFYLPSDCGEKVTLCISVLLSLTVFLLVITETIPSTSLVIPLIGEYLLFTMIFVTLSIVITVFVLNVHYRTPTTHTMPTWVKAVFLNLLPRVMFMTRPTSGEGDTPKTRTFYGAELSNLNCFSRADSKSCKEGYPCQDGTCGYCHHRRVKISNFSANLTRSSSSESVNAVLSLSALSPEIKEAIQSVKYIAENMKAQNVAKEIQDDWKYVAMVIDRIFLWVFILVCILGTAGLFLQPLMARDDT
T1 sequence (P12392 whole entry): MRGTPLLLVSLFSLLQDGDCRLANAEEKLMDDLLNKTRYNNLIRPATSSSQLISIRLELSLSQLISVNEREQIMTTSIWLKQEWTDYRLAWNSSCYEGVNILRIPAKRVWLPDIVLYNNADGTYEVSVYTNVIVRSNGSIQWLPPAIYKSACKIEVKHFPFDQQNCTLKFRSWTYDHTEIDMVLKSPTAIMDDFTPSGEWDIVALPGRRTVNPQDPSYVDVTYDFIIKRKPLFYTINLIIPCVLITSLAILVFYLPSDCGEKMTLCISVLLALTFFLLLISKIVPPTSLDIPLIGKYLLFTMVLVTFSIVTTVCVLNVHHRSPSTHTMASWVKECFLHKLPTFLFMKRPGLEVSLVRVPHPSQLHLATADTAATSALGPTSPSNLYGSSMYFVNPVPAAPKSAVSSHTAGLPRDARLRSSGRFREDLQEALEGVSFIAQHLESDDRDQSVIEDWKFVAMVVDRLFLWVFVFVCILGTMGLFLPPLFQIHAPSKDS
Neuronal acetylcholine receptor; alpha4/beta2, sequence (P09483 whole entry): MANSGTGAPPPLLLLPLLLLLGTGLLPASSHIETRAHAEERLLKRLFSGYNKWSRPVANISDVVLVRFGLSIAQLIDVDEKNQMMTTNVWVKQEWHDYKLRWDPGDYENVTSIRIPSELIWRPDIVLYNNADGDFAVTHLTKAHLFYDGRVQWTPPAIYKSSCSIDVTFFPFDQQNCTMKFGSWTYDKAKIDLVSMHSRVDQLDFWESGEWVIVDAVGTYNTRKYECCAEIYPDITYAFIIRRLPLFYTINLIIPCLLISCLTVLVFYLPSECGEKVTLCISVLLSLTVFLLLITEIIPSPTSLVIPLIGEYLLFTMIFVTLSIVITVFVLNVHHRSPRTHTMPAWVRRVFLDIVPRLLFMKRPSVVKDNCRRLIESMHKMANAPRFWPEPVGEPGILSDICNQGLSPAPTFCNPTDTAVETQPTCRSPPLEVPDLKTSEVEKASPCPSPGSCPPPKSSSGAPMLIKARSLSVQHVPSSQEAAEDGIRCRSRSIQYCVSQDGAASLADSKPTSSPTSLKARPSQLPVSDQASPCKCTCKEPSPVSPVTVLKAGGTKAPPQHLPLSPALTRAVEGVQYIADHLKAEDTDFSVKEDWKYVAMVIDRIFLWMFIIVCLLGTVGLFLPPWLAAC
Neuronal acetylcholine receptor; alpha4/beta2, sequence (P12390 whole entry): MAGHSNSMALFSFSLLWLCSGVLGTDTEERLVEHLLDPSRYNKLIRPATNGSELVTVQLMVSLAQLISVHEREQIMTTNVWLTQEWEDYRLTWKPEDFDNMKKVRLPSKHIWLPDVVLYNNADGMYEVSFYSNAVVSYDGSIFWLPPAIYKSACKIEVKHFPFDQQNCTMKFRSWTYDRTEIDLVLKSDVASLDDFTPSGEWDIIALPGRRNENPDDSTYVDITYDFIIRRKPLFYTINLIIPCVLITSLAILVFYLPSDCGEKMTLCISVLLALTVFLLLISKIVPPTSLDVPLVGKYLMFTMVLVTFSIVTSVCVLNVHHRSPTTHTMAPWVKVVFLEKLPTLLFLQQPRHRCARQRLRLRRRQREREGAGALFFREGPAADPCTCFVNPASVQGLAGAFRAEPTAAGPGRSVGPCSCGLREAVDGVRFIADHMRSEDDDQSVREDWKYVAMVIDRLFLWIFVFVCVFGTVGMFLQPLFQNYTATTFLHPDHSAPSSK
Neuronal acetylcholine receptor; alpha4/beta4, sequence (P09483 whole entry): as the sequence (P09483 whole entry) above
Neuronal acetylcholine receptor; alpha4/beta4, sequence (P12392 whole entry): as the sequence (P12392 whole entry) above
Neuronal acetylcholine receptor subunit alpha-4/beta-2, sequence (Q9ERK7 whole entry): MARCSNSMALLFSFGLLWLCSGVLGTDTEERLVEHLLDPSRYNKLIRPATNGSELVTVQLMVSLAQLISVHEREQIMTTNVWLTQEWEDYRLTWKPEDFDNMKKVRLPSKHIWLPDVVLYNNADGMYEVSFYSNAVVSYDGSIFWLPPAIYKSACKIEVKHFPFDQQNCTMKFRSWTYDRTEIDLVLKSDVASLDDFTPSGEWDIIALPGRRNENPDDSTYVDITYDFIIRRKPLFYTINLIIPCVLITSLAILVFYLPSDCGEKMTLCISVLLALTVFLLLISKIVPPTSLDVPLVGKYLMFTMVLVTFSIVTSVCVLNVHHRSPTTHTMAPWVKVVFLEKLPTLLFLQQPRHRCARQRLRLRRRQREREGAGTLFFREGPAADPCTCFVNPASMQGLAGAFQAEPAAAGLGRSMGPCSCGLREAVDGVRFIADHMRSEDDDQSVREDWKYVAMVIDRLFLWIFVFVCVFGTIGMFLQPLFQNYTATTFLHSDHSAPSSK
Neuronal acetylcholine receptor subunit alpha-4/beta-2, sequence (O70174 whole entry): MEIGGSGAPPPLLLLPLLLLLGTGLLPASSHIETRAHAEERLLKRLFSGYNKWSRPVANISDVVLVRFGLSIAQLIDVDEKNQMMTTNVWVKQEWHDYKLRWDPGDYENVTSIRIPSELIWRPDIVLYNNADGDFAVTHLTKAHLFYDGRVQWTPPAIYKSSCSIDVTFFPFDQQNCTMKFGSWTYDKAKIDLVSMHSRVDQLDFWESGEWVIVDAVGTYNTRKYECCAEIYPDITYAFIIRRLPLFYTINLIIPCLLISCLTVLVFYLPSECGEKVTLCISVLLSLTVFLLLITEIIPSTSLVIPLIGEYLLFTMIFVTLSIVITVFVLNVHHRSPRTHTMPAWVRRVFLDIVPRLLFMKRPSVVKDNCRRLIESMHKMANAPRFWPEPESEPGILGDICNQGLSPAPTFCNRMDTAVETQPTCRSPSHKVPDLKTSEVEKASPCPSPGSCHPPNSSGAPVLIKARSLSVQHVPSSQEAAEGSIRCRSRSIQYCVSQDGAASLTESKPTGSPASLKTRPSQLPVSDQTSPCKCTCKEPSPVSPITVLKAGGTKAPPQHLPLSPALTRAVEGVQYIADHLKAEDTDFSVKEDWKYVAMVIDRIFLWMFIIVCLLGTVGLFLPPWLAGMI

CN1CCN(C(=O)N(C)C)CC1
Ki [1]: 30 µM | Ki ([2]; read-out: Ki): 50 µM | Ki ([3]; read-out: Ki): 50 µM

CCNC(=O)N1CCN(C)CC1
Ki [1]: 10 µM | Ki ([2]; read-out: Ki): 100 µM | Ki ([3]; read-out: Ki): 100 µM | Activity [4]: Active | EC50 [5]: > 1000 µM | pEC50 [5]: < 3

CNC(=S)N1CCN(C)CC1
Ki [1]: 19 µM | Ki ([2]; read-out: Ki): 500 µM | pKi [3]: < 3 | Ki ([3]; read-out: Ki): > 1000 µM

CCNC(=S)N1CCN(C)CC1
Ki [1]: 5.8 µM | Ki ([2]; read-out: Ki): 300 µM | pKi [3]: < 3 | Ki ([3]; read-out: Ki): > 1000 µM | Activity [4]: Active | EC50 [6]: 100 µM

CN(C)C(=O)C1CCNCC1
Ki [1]: > 1000 µM | pKi ([1]; hek293): < 3 | pKi ([2]; hek293): < 3 | Ki ([2]; read-out: Ki): > 1000 µM | pKi [3]: < 3 | Ki ([3]; read-out: Ki): > 1000 µM

CN1CCCN(C(=O)N(C)C)CC1
Ki [1]: 50 µM | Ki ([2]; read-out: Ki): 300 µM | Ki ([3]; read-out: Ki): 300 µM

CN(C)C(=O)N1CCCNCC1
Ki [1]: 11 µM | Ki ([2]; read-out: Ki): 50 µM | Ki ([3]; read-out: Ki): 300 µM

CC(CCOC(=O)N(C)C)N(C)C (configuration not stated)
Ki ([2]; read-out: pKi (converted)): 0.02 µM | Ki ([3]; read-out: pKi (converted)): 0.02 µM

CC(CCOC(=O)N1CCCC1)N(C)C (configuration not stated)
EC50 [7]: 7.1 µM

CN(C)C(=O)OC[C@H]1C[C@H]1N (racemic)
Ki [1]: 13 µM | Ki ([2]; read-out: Ki): 100 µM | Ki ([3]; read-out: Ki): 300 µM

CN(C)C(=O)OC[C@H]1C[C@@H]1N(C)C (racemic)
Ki [1]: 100 µM | Ki ([2]; read-out: Ki): 1000 µM | Ki ([3]; read-out: Ki): 1000 µM

CNC(=O)OC[C@H]1C[C@@H]1N(C)C.O=C(O)C(=O)O (racemic)
Ki [1]: 300 µM | Ki ([2]; read-out: Ki): 1000 µM | pKi [3]: < 3 | Ki ([3]; read-out: Ki): > 1000 µM

CN(C)C(=O)OC[C@H]1C[C@H]1N(C)C (racemic)
Ki [1]: 1.5 µM | Ki ([2]; read-out: Ki): 14 µM | Ki ([3]; read-out: Ki): 14 µM | Activity [4]: Active | Activity [8]: Active

CNC(=O)OC[C@H]1C[C@H]1N(C)C (racemic)
Ki [1]: 2.1 µM | Ki ([2]; read-out: Ki): 30 µM | Ki ([3]; read-out: Ki): 50 µM | Activity [4]: Active | Activity [8]: Active

CN(C)C(=O)N1CCC(N(C)C)C1 (racemic)
Ki [1]: 6.4 µM | Ki ([2]; read-out: Ki): 2.3 µM | Ki ([3]; read-out: Ki): 6.4 µM | EC50 [7]: 10 µM | EC50 [6]: 32 µM

CCNC(=O)N1CCC(N(C)C)C1 (racemic)
Ki [1]: 5.7 µM | Ki ([2]; read-out: Ki): 30 µM | Ki ([3]; read-out: Ki): 30 µM | Activity [4]: Active | EC50 [6]: 100 µM

CNC(=S)N1CCC(N(C)C)C1 (racemic)
Ki [1]: 2.3 µM | Ki ([2]; read-out: Ki): 100 µM | Ki ([3]; read-out: Ki): 300 µM | Activity [4]: Active | EC50 [5]: > 1000 µM | pEC50 [5]: < 3

CCNC(=S)N1CCC(N(C)C)C1 (racemic)
Ki [1]: 1.2 µM | Ki ([2]; read-out: Ki): 300 µM | pKi [3]: < 3 | Ki ([3]; read-out: Ki): > 1000 µM | Activity [4]: Active | EC50 [5]: > 1000 µM | pEC50 [5]: < 3
